Where a SMILES comes first, the peptide text is derived from it. [ ]: non-standard residue; d: D form.
Key:
Format in all cases: cell-based
[1] = test system: clinical strains of Acinetobacter baumannii; experiment: MIC, microdilution, clinical strains; set-up: unit: μg/ml; conditions: 0.02% BSA, 0.2% acetic acid
Method in brief: (§1)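 Broth microdilution with inocula adjusted to 5.0×10^5 cfu/ml; peptides tested at 0.125 to 128 μg/ml and incubated at 37° C for 20 to 24 hours. Bacteria were grown in Mueller Hinton broth, yeasts in potato dextrose broth. MIC was the lowest concentration showing no visible growth.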

[2] = test system: clinical strains of A. johnsonii; experiment: MIC, microdilution, clinical strains; set-up: unit: μg/ml; conditions: Acinetobacter johnsonii strain 1, Muller Hinton broth-cation adjusted, 0.02% BSA, 0.2% acetic acid
Method in brief: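 Broth microdilution in Potato dextrose broth, inoculum 5.0×10^5 cfu/ml, peptide 0.125–128 μg/ml, incubated at 37 °C for 20–24 h; MIC taken as lowest concentration without visible growth. A. johnsonii clinical strains were tested the same way in Mueller Hinton broth.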

[3] = test system: C. parapsilosis; experiment: MIC, clinical yeast strains; conditions: D-form peptide, concentrations tested 0.125 to 128 μg/ml
Method in brief: (§2)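 Clinical isolates were exposed to peptide concentrations from 0.125 up to 128 μg/ml at a starting density of 5.0×10^5 cfu/ml. Antifungal testing took place in potato dextrose broth at 37° C for 20 to 24 hours, and the end point was the absence of visible growth.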

[4] = test system: Candida albicans; experiment: MIC, clinical yeast strains; conditions: D-form peptide, concentrations tested 0.125 to 128 μg/ml
Method in brief: as §2

[5] = test system: C. glabrata; experiment: MIC, clinical yeast strains; conditions: D-form peptide, concentrations tested 0.125 to 128 μg/ml
Method in brief: as §2

[6] = test system: clinical strains of P. aeruginosa; experiment: MIC, microdilution, clinical strains; conditions: 0.02% BSA, 0.2% acetic acid
Method in brief: as §1

[7] = test system: clinical strains of K. pneumoniae; experiment: MIC, microdilution, clinical strains; conditions: 0.02% BSA, 0.2% acetic acid
Method in brief: as §1

[8] = test system: clinical strains of Serratia marcescens; experiment: MIC, microdilution, clinical strains; conditions: 0.02% BSA, 0.2% acetic acid
Method in brief: as §1

[9] = test system: clinical strains of S. pneumoniae; experiment: MIC, microdilution, clinical strains; conditions: 0.02% BSA, 0.2% acetic acid
Method in brief: as §1

[10] = test system: clinical strains of S. aureus; experiment: MIC, microdilution, clinical strains; conditions: 0.02% BSA, 0.2% acetic acid
Method in brief: as §1

[11] = test system: clinical strains of Proteus mirabilis; experiment: MIC, microdilution, clinical strains; conditions: 0.02% BSA, 0.2% acetic acid
Method in brief: as §1

[12] = test system: clinical strains of E. coli; experiment: MIC, microdilution, clinical strains; conditions: microdilution, Muller Hinton broth-cation adjusted, 0.02% BSA, 0.2% acetic acid
Method in brief: as §1

[13] = test system: clinical strains of E. cloacae; experiment: MIC, microdilution, clinical strains; conditions: 0.02% BSA, 0.2% acetic acid
Method in brief: as §1

[14] = test system: C. quillermondiae; experiment: MIC, clinical yeast strains; conditions: clinical yeast strain 1; D-form peptide; concentrations tested 0.125 to 128 μg/ml
Method in brief: as §2

CC[C@@H](C)[C@@H](NC(=O)[C@@H](CCSC)NC(=O)[C@@H](C)NC(=O)[C@@H](CCCNC(=N)N)NC(=O)[C@@H](Cc1c[nH]c2ccccc12)NC(=O)[C@@H](CCCCN)NC(=O)[C@H](N)CCCNC(=N)N)C(=O)N[C@H](CCCNC(=N)N)C(=O)N[C@H](CC(C)C)C(=O)N[C@H](Cc1c[nH]cn1)C(=O)N[C@H](C)C(=O)N[C@H](CCCCN)C(=O)N[C@H](Cc1c[nH]c2ccccc12)C(=O)N[C@H](CC(C)C)C(=O)N[C@H](CCCNC(=N)N)C(=O)N[C@H](CCCCN)C(=O)O [Chain105D] (H-[dR][dK][dW][dR][dA][dM][dI][dR][dL][dH][dA][dK][dW][dL][dR][dK]-OH)
Minimum inhibitory concentration ([1]; Acinetobacter baumannii strain 1, Muller Hinton broth-cation adjusted): 4
Minimum inhibitory concentration ([1]; Acinetobacter baumannii strain 2, Muller Hinton broth-cation adjusted): 4
Minimum inhibitory concentration ([1]; Acinetobacter baumannii strain 3, Muller Hinton broth-cation adjusted): 4
Minimum inhibitory concentration ([1]; Acinetobacter baumannii strain 4, Muller Hinton broth-cation adjusted): 2
Minimum inhibitory concentration ([1]; Acinetobacter baumannii strain 5, Muller Hinton broth-cation adjusted): 4
Minimum inhibitory concentration [2]: 4
Minimum inhibitory concentration, C. parapsilosis strain 1 ([3]; clinical yeast strain 1): 8
Minimum inhibitory concentration, C. parapsilosis strain 2 ([3]; clinical yeast strain 2): 8
Minimum inhibitory concentration, C. parapsilosis strain 3 ([3]; clinical yeast strain 3): 8
Minimum inhibitory concentration, C. parapsilosis strain 4 ([3]; clinical yeast strain 4): 4
Minimum inhibitory concentration, Candida albicans strain 1 ([4]; clinical yeast strain 1): 32
Minimum inhibitory concentration, Candida albicans strain 2 ([4]; clinical yeast strain 2): 16
Minimum inhibitory concentration, Candida albicans strain 3 ([4]; clinical yeast strain 3): 32
Minimum inhibitory concentration, Candida albicans strain 4 ([4]; clinical yeast strain 4): 32
Minimum inhibitory concentration, Candida albicans strain 5 ([4]; clinical yeast strain 5): 32
Minimum inhibitory concentration, C. glabrata strain 1 ([5]; clinical yeast strain 1): 16
Minimum inhibitory concentration, C. glabrata strain 2 ([5]; clinical yeast strain 2): 16
Minimum inhibitory concentration, C. glabrata strain 3 ([5]; clinical yeast strain 3): 8
Minimum inhibitory concentration, C. glabrata strain 4 ([5]; clinical yeast strain 4): 32
Minimum inhibitory concentration ([6]; Pseudomonas aeruginosa strain 1, Muller Hinton broth-cation adjusted): 4
Minimum inhibitory concentration ([6]; Pseudomonas aeruginosa strain 2, Muller Hinton broth-cation adjusted): 4
Minimum inhibitory concentration ([6]; Pseudomonas aeruginosa strain 3, Muller Hinton broth-cation adjusted): 4
Minimum inhibitory concentration ([6]; Pseudomonas aeruginosa strain 4, Muller Hinton broth-cation adjusted): 4
Minimum inhibitory concentration ([6]; Pseudomonas aeruginosa strain 5, Muller Hinton broth-cation adjusted): 4
Minimum inhibitory concentration ([7]; Klebsiella pneumoniae strain 1, Muller Hinton broth-cation adjusted): 4
Minimum inhibitory concentration ([7]; Klebsiella pneumoniae strain 2, Muller Hinton broth-cation adjusted): 2
Minimum inhibitory concentration ([7]; Klebsiella pneumoniae strain 3, Muller Hinton broth-cation adjusted): 4
Minimum inhibitory concentration ([7]; Klebsiella pneumoniae strain 4, Muller Hinton broth-cation adjusted): 4
Minimum inhibitory concentration ([7]; Klebsiella pneumoniae strain 5, Muller Hinton broth-cation adjusted): 2
Minimum inhibitory concentration ([8]; Serratia marcescens strain 1, Muller Hinton broth-cation adjusted): 128
Minimum inhibitory concentration ([8]; Serratia marcescens strain 2, Muller Hinton broth-cation adjusted): 128
Minimum inhibitory concentration ([8]; Serratia marcescens strain 3, Muller Hinton broth-cation adjusted): 128
Minimum inhibitory concentration ([8]; Serratia marcescens strain 4, Muller Hinton broth-cation adjusted): 128
Minimum inhibitory concentration ([8]; Serratia marcescens strain 5, Muller Hinton broth-cation adjusted): 128
Minimum inhibitory concentration ([9]; Streptococcus pneumoniae strain 1, Muller Hinton broth-cation adjusted): 4
Minimum inhibitory concentration ([9]; Streptococcus pneumoniae strain 2, Muller Hinton broth-cation adjusted): 2
Minimum inhibitory concentration ([9]; Streptococcus pneumoniae strain 3, Muller Hinton broth-cation adjusted): 2
Minimum inhibitory concentration ([9]; Streptococcus pneumoniae strain 4, Muller Hinton broth-cation adjusted): 4
Minimum inhibitory concentration ([9]; Streptococcus pneumoniae strain 5, Muller Hinton broth-cation adjusted): 2
Minimum inhibitory concentration ([10]; Staphylococcus aureus strain 1, Muller Hinton broth-cation adjusted): 2
Minimum inhibitory concentration ([10]; Staphylococcus aureus strain 2, Muller Hinton broth-cation adjusted): 2
Minimum inhibitory concentration ([10]; Staphylococcus aureus strain 3, Muller Hinton broth-cation adjusted): 2
Minimum inhibitory concentration ([10]; Staphylococcus aureus strain 4, Muller Hinton broth-cation adjusted): 2
Minimum inhibitory concentration ([10]; Staphylococcus aureus strain 5, Muller Hinton broth-cation adjusted): 2
Minimum inhibitory concentration ([11]; Proteus mirabilis strain 1, Muller Hinton broth-cation adjusted): >128
Minimum inhibitory concentration ([11]; Proteus mirabilis strain 2, Muller Hinton broth-cation adjusted): 32
Minimum inhibitory concentration ([11]; Proteus mirabilis strain 3, Muller Hinton broth-cation adjusted): 64
Minimum inhibitory concentration ([11]; Proteus mirabilis strain 4, Muller Hinton broth-cation adjusted): >128
Minimum inhibitory concentration ([11]; Proteus mirabilis strain 5, Muller Hinton broth-cation adjusted): >128
Minimum inhibitory concentration ([12]; Escherichia coli strain 1): 1
Minimum inhibitory concentration ([12]; Escherichia coli strain 2): 4
Minimum inhibitory concentration ([12]; Escherichia coli strain 3): 1
Minimum inhibitory concentration ([12]; Escherichia coli strain 4): 1
Minimum inhibitory concentration ([12]; Escherichia coli strain 5): 2
Minimum inhibitory concentration ([13]; Enterobacter cloacae strain 1, Muller Hinton broth-cation adjusted): 2
Minimum inhibitory concentration ([13]; Enterobacter cloacae strain 2, Muller Hinton broth-cation adjusted): 2
Minimum inhibitory concentration ([13]; Enterobacter cloacae strain 3, Muller Hinton broth-cation adjusted): 2
Minimum inhibitory concentration ([13]; Enterobacter cloacae strain 4, Muller Hinton broth-cation adjusted): 2
Minimum inhibitory concentration ([13]; Enterobacter cloacae strain 5, Muller Hinton broth-cation adjusted): 1
Minimum inhibitory concentration, C. quillermondiae strain 1 [14]: 8
